Patent US7566732B2, “Rhodanine compositions for use as antiviral agents” (priority 2003, dated 2009)

Target: EVp28 (Gst-Evp28) ubiquitin ligase (Ectromelia virus, UniProt Q85318)
Assay: biochemical

SMILES	IC50 [nM]
O=C1/C(=C\c2ccc(-c3cccc(C(F)(F)F)c3)o2)SC(=S)N1Cc1ccccc1 [Compound 54, (5E)-3-benzyl-2-thioxo-5-({5-[3-(trifluoromethyl)phenyl]-2-furyl}methylene)-1,3-thiazolidin-4-one]	16
O=C1/C(=C\c2nc3ccccc3[nH]2)SC(=S)N1c1ccc(F)cc1 [Compound 307]	92
